“Also recorded” adds a separate entry of the source.
Key:
SGLT1 mRNA = test: Transcription of SGLT1 mRNA in Caco-2 cells (RT-PCR); type: cell-based, human; settings: 62.50 µg/ml, normalized to GAPDH
Experimental: (§1) RNA was extracted from Caco-2 cells using an RNA extraction kit (QIAGEN, Hilden, Germany). Reverse transcription was performed with SuperScript III Reverse Transcriptionase (Thermo Fisher Scientific, Waltham, USA). cDNA was synthesized from 2 µg of total RNA according to the manufacturer’s instructions. Then, the cDNA was maintained at − 20°C for further analysis by real-time PCR. The specific primers used in the experiment were as follows: SGLT1, 5’-[…]-3’ (forward) and 3’-[…]-5’ (reverse); GLUT2, 5’-[…]-3’ (forward) and 3’-[…]-5’ (reverse); GLUT5, 5’- […]-3’ (forward) and 3’-[…]-5’ (reverse). All conditions were performed in triplicate with 3 independent experiments. The real-time qPCR mixture (10 µL) comprised 1 µL of DNA polymerase, template DNA (25 ng), 1 µL of DEPC, and 1.2 µL of forward and reverse primers. Thermal cycling (Applied Biosystems, Waltham, USA) consisted of (denaturation 95 °C for 20 s, annealing 63.3 °C for 30 s, and extension 72 °C for 20 s, 40 cycles. The gene expression data were normalized to the internal control gene GAPDH and then compared using comparative delta-delta Ct.

GLUT5 mRNA = test: Transcription of GLUT5 mRNA in Caco-2 cells (RT-PCR); type: cell-based, human; settings: 62.50 µg/ml, normalized to GAPDH
Experimental: as §1

GLUT2 mRNA = test: Transcription of GLUT2 mRNA in Caco-2 cells (RT-PCR); type: cell-based, human; settings: 62.50 µg/ml, normalized to GAPDH
Experimental: as §1

[1] = DPPH radical scavenging assay; settings: mean ± SEM
Experimental: The method by Kumar, Sanjiv et al. was adopted for DPPH (2,2-diphenyl-1-picrylhydrazyl) assays with slight modifications. Briefly, DPPH solution (100 µl) and extract solution (100 µl) were added to a 96-well microplate and thoroughly mixed. The absorbance was measured at 517 nm after a 30-minute incubation time at room temperature.

ABTS scavenging assay = settings: mean ± SEM
[2] = tested on: α-glucosidase in Caco-2 cells; test: Inhibition of α-glucosidase activity in Caco-2 cell monolayer; type: cell-based, human; settings: apical side of Caco-2 monolayer; 31.25 and 62.50 ug/ml tested, concentration of the values not given
Experimental: (§2) Caco-2 cells were obtained from the American Type Culture Collection (ATCC). The cells were cultured in DMEM with 10% FBS and 1% penicillin–streptomycin solution and were maintained at 37 °C in a humidified environment of 95% air and 5% CO2. For the viability test, the Caco-2 cells were seeded on 96-well plates, and 24-well Transwell plates were used to determine α-glucosidase inhibition. […] Fresh media was supplied to the cells every two days during this period.
Caco-2 cells were seeded in 24-transwell plates at a density of 10,000 cells per well for 21 days. The cells were washed in 1X PBS after the culture media was removed. […] At the same time, the lower chamber was filled with glucose-free medium (500 µl). Then, 50 µl of culture media from the upper chamber was taken and measured by the glucose oxidase method.

Caco-2 cells = test: Cell viability assay (MTT) in Caco-2 cells; type: cell-based, human; settings: concentrations from 0 to 62.50 ug/ml, 24 h
Experimental: as §2
Caco-2 cells were obtained from the American Type Culture Collection (ATCC). The cells were grown in complete medium (DMEM with 10% FBS, 100 units/mL penicillin, and 100 µg/mL streptomycin) and plated at a density of 10,000 cells per well in 96-well plates for 21 days. Then, the cells were treated with extracts at concentrations ranging from […] for another 24 h. DMSO (0.1%) was added to the control group. The MTT test was used to measure cell viability after treatment. In a 96-well plate, 100 µl of MTT at a concentration of 0.5 mg/ml was applied to each well. The MTT solution was withdrawn after 3 h of incubation at 37 °C, and formazan crystals were dissolved in 100 µl of DMSO. At 570 nm, the purple color that was generated was detected spectrophotometrically (with a reference OD of 690). Prism 6 software was used to calculate cell viability. The appropriate concentration of extracts was chosen for future experiments.

Row | Structure (SMILES) | Transcription of SGLT1 gene (mRNA) (SGLT1 mRNA) | Transcription of GLUT5 gene (mRNA) (GLUT5 mRNA) | Transcription of GLUT2 gene (mRNA) (GLUT2 mRNA) | EC50 [1] [µM] | EC50 (ABTS scavenging assay) [µM] | α-glucosidase activity compared with untreated cells [2] [%] | Cytotoxicity to Caco-2 cells (MTT) (Caco-2 cells)
1 | C[C@H]1O[C@H](O[C@H]2[C@H](O)[C@@H](O)[C@@H](O[C@H]3[C@H](O)[C@@H](O)C(O)O[C@@H]3CO)O[C@@H]2CO)[C@H](O)[C@@H](O)[C@@H]1N[C@H]1C=C(CO)[C@@H](O)[C@H](O)[C@H]1O (stereo partly drawn) [Acarbose, acarbose, reference compound] | downregulated | downregulated | downregulated |  |  |  | 
2 | O=C1O[C@H]([C@@H](O)CO)C(O)=C1O [Ascorbic acid, ascorbic acid, reference compound] |  |  |  | 30.38 ± 0.18 | 25.1 ± 0.19 |  | 
3 | C[C@@H]1O[C@@H](Oc2coc3cc(O)cc(O)c3c2=O)[C@H](O)[C@H](O)[C@H]1O [Compound 1, 3,5,7-trihydroxychromone-3-O-α-L-rhamnopyranoside] | downregulated | downregulated | downregulated | 5.22 ± 0.2 | 10.3 ± 0.2 | 59.75 | without cytotoxicity; also recorded: not cytotoxic

Source: paper PMC9442914, “Antidiabetic potential of Lysiphyllum strychnifolium (Craib) A. Schmitz compounds in human intestinal epithelial Caco-2 cells and molecular docking-based approaches” (BMC Complementary Medicine and Therapies, 2022)
